Experimental data published in US20240301409A1, “Chemically Modified Small Activating RNA” (RACTIGEN THERAPEUTICS, priority 2021, published 2024).

System: J82 cells
Test: Cellular proliferation assay (CCK8) in J82 cells, combined with Mitomycin C or valrubicin
Assay type: cell-based, human
Conditions: for Combination Index (CI) / relative proliferation proportion of cells: J82 cells
Procedure: J82 cells were transfected with RAG1-40-31 at concentrations of 0.1, 0.5, 1, 5, 10, 25 and 50 nM for 24 hours, and then Mitomycin C at concentrations of 1, 10, 100, 1000 and 10000 nM was added. The combined treatment was carried out with concentrations in pairs. After treatment, the proliferation of cells was detected using CCK8 kit. FIGS. 14A-14B show the relative proliferation proportion of J82 cells after the combined treatment with chemically modified saRNA RAG1-40-31 and valrubicin. […] Control and DMSO are the blank transfection control and the solvent for dilution control, respectively.
J82 cells were transfected with RAG1-40-31 at concentrations of 0.1, 0.5, 1, 5, 10, 25 and 50 nM for 24 hours, and then valrubicin at concentrations of 1, 10, 100, 1000 and 10000 nM was added. The combined treatment was carried out with concentrations in pairs. After treatment, the cellular proliferation was detected by CCK8 kit. FIGS. 15A-15B show the relative proliferation proportion of T24 cells after the combined treatment with chemically modified saRNA RAG1-40-31 and Mitomycin C. […] Control and DMSO are the blank transfection control and the solvent for dilution control, respectively.
Human bladder cancer cells Ku-7-LG (ATCC), J82 (ATCC) and T24 (ATCC) were cultured in McCoy medium (Gibco) comprising 10% calf serum (Sigma-Aldrich) and 1% penicillin/Streptomycin (Gibco). Cells were cultured at 37° C. under 5% CO2. Ku-7-LG, J82 and T24 cells were plated into 12-well plates at 10×10^4 cells per well, transfected with the small RNA at a concentration of 10 nM (unless otherwise specified) for three days, using RNAiMax (Invitrogen, Carlsbad, CA) according to the manufacturer's instructions. Two replicate wells were set for each treatment.
Cells were plated in a 96-well plate at 2˜4×10^3 cells/well, cultured overnight, and transfected with the oligonucleotide duplexes. Three days after transfection, CCK8 (Dojindo) was used to detect cellular proliferation following manufacturer's instructions. The experimental steps are briefly described as follows: 10 μL of CCK8 solution was added to each well, incubated at 37° C. for 1 hour, and then the absorbance at 450 nm was measured using a microplate reader.
In this example, chemically modified saRNA RAG1-40-31 was used in combination with clinical chemical agents to evaluate the suppressing effect of the combined agents on cancer cells.

[1] = RAG1-40-31 0.1 nM + MMC 1000 nM

RAG1-40-31: saRNA duplex: sense fCfCAACUCAUUCUCCAAG*U*C (SEQ ID NO 16); antisense U*A*fCfUfUGGAGAAfUGAGfUfUGG*fC*A (SEQ ID NO 12) (sense CCAACUCAUUCUCCAAGUC; antisense UACUUGGAGAAUGAGUUGGCA; 2'-F and phosphorothioate modifications; modified_base (1)..(2) (1,2)=2′-fluoro; modified_base (17)..(19) (17,18,19)=phosphorothioate (PS) backbone modification; modified_base (2)..(21) (2,3,19,20,21)=phosphorothioate (PS) backbone modification; modified_base (3)..(20) (3,4,5,12,16,17,20)=2′-fluoro)
Combination Index (CI) (RAG1-40-31 0.1 nM + MMC 1 nM): 0.08 | Combination Index (CI) (RAG1-40-31 0.1 nM + MMC 10 nM): 0.42 | Combination Index (CI) (RAG1-40-31 0.1 nM + MMC 100 nM): 0.47 | Combination Index (CI) [1]: 0.73 | Combination Index (CI) (RAG1-40-31 0.1 nM + MMC 10000 nM): 0.50 | Combination Index (CI) (RAG1-40-31 0.1 nM + valrubicin 1 nM): 0.10 | Combination Index (CI) (RAG1-40-31 0.1 nM + valrubicin 10 nM): 0.42 | Combination Index (CI) (RAG1-40-31 0.1 nM + valrubicin 100 nM): 0.85 | Combination Index (CI) (RAG1-40-31 0.1 nM + valrubicin 1000 nM): 0.18 | Combination Index (CI) (RAG1-40-31 0.1 nM + valrubicin 10000 nM): 0.19 | Combination Index (CI) (RAG1-40-31 0.5 nM + MMC 1 nM): 0.17 | Combination Index (CI) (RAG1-40-31 0.5 nM + MMC 10 nM): 0.47 | Combination Index (CI) (RAG1-40-31 0.5 nM + MMC 100 nM): 0.54 | Combination Index (CI) (RAG1-40-31 0.5 nM + MMC 1000 nM): 0.75 | Combination Index (CI) (RAG1-40-31 0.5 nM + MMC 10000 nM): 0.25 | Combination Index (CI) (RAG1-40-31 0.5 nM + valrubicin 1 nM): 0.18 | Combination Index (CI) (RAG1-40-31 0.5 nM + valrubicin 10 nM): 0.08 | Combination Index (CI) (RAG1-40-31 0.5 nM + valrubicin 100 nM): 1.31 | Combination Index (CI) (RAG1-40-31 0.5 nM + valrubicin 1000 nM): 0.14 | Combination Index (CI) (RAG1-40-31 0.5 nM + valrubicin 10000 nM): 0.11 | Combination Index (CI) (RAG1-40-31 1 nM + MMC 1 nM): 0.13 | Combination Index (CI) (RAG1-40-31 1 nM + MMC 10 nM): 0.58 | Combination Index (CI) (RAG1-40-31 1 nM + MMC 100 nM): 0.52 | Combination Index (CI) (RAG1-40-31 1 nM + MMC 1000 nM): 0.76 | Combination Index (CI) (RAG1-40-31 1 nM + MMC 10000 nM): 0.46 | Combination Index (CI) (RAG1-40-31 1 nM + valrubicin 1 nM): 0.26 | Combination Index (CI) (RAG1-40-31 1 nM + valrubicin 10 nM): 0.12 | Combination Index (CI) (RAG1-40-31 1 nM + valrubicin 100 nM): 0.30 | Combination Index (CI) (RAG1-40-31 1 nM + valrubicin 1000 nM): 0.12 | Combination Index (CI) (RAG1-40-31 1 nM + valrubicin 10000 nM): 0.11 | Combination Index (CI) (RAG1-40-31 5 nM + MMC 1 nM): 0.29 | Combination Index (CI) (RAG1-40-31 5 nM + MMC 10 nM): 0.32 | Combination Index (CI) (RAG1-40-31 5 nM + MMC 100 nM): 0.40 | Combination Index (CI) (RAG1-40-31 5 nM + MMC 1000 nM): 0.43 | Combination Index (CI) (RAG1-40-31 5 nM + MMC 10000 nM): 0.41 | Combination Index (CI) (RAG1-40-31 5 nM + valrubicin 1 nM): 0.12 | Combination Index (CI) (RAG1-40-31 5 nM + valrubicin 10 nM): 0.32 | Combination Index (CI) (RAG1-40-31 5 nM + valrubicin 100 nM): 0.61 | Combination Index (CI) (RAG1-40-31 5 nM + valrubicin 1000 nM): 0.13 | Combination Index (CI) (RAG1-40-31 5 nM + valrubicin 10000 nM): 0.06 | Combination Index (CI) (RAG1-40-31 10 nM + MMC 1 nM): 0.40 | Combination Index (CI) (RAG1-40-31 10 nM + MMC 10 nM): 0.47 | Combination Index (CI) (RAG1-40-31 10 nM + MMC 100 nM): 0.37 | Combination Index (CI) (RAG1-40-31 10 nM + MMC 1000 nM): 0.41 | Combination Index (CI) (RAG1-40-31 10 nM + MMC 10000 nM): 0.29 | Combination Index (CI) (RAG1-40-31 10 nM + valrubicin 1 nM): 0.14 | Combination Index (CI) (RAG1-40-31 10 nM + valrubicin 10 nM): 0.22 | Combination Index (CI) (RAG1-40-31 10 nM + valrubicin 100 nM): 0.37 | Combination Index (CI) (RAG1-40-31 10 nM + valrubicin 1000 nM): 0.11 | Combination Index (CI) (RAG1-40-31 10 nM + valrubicin 10000 nM): 0.04 | Combination Index (CI) (RAG1-40-31 25 nM + MMC 1 nM): 0.32 | Combination Index (CI) (RAG1-40-31 25 nM + MMC 10 nM): 0.50 | Combination Index (CI) (RAG1-40-31 25 nM + MMC 100 nM): 0.37 | Combination Index (CI) (RAG1-40-31 25 nM + MMC 1000 nM): 0.28 | Combination Index (CI) (RAG1-40-31 25 nM + MMC 10000 nM): 0.09 | Combination Index (CI) (RAG1-40-31 25 nM + valrubicin 1 nM): 0.14 | Combination Index (CI) (RAG1-40-31 25 nM + valrubicin 10 nM): 0.10 | Combination Index (CI) (RAG1-40-31 25 nM + valrubicin 100 nM): 0.16 | Combination Index (CI) (RAG1-40-31 25 nM + valrubicin 1000 nM): 0.05 | Combination Index (CI) (RAG1-40-31 25 nM + valrubicin 10000 nM): 0.02 | relative proliferation proportion of cells (RAG1-40-31 25 nM and 50 nM + Mitomycin C 1, 10, 100, 1000 and 10000 nM): lower than 26% | relative proliferation proportion of cells (RAG1-40-31 25 nM and 50 nM + Valrubicin 1, 10, 100, 1000 and 10000 nM): lower than 30% | Combination Index (CI) (RAG1-40-31 50 nM + MMC 1 nM): 0.96 | Combination Index (CI) (RAG1-40-31 50 nM + MMC 10 nM): 0.98 | Combination Index (CI) (RAG1-40-31 50 nM + MMC 100 nM): 0.44 | Combination Index (CI) (RAG1-40-31 50 nM + MMC 1000 nM): 0.19 | Combination Index (CI) (RAG1-40-31 50 nM + MMC 10000 nM): 0.15 | Combination Index (CI) (RAG1-40-31 50 nM + valrubicin 1 nM): 0.11 | Combination Index (CI) (RAG1-40-31 50 nM + valrubicin 10 nM): 0.14 | Combination Index (CI) (RAG1-40-31 50 nM + valrubicin 100 nM): 0.22 | Combination Index (CI) (RAG1-40-31 50 nM + valrubicin 1000 nM): 0.09 | Combination Index (CI) (RAG1-40-31 50 nM + valrubicin 10000 nM): 0.02 | relative proliferation proportion of cells (RAG1-40-31 0.1-50 nM + Mitomycin C 100, 1000 and 10000 nM): lower than 35% | relative proliferation proportion of cells (RAG1-40-31 0.1-50 nM + Valrubicin 1000 nM and 10000 nM): lower than 30% | relative proliferation proportion of cells (RAG1-40-31 5-50 nM + Mitomycin C 1, 10, 100, 1000 and 10000 nM): lower than 43% | effect of combined use with Mitomycin C or valrubicin, in words (J82 tumor cells): synergistic effect | Relative proliferation proportion of J82 cells (RAG1-40-31 0.1 nM + MMC 1 nM): 74.3% | Relative proliferation proportion of J82 cells (RAG1-40-31 0.1 nM + MMC 10 nM): 71.5% | Relative proliferation proportion of J82 cells (RAG1-40-31 0.1 nM + MMC 100 nM): 32.9% | Relative proliferation proportion of J82 cells [1]: 10.8%
